We go through one molecule from US6797699B1, “Neuroprotective agents” (University of Southampton, priority 1997, dated 2004).

The test system of data set [1] is NMDA receptor-mediated neurotoxicity in organotypic hippocampal slice cultures. The data set can be described thus: NMDA receptor-mediated neurotoxicity in organotypic hippocampal slice cultures. The settings on record: 300 μM throughout the experiment, PI at 24 hours. Type of data set: cell-based, Wistar rat. As for the experimental part:
Organotypic hippocampal slice cultures were prepared and maintained as described above. NMDA was prepared as a 50 mM stock solution in distilled water, and diluted as required in SF medium. Neurotoxicity was induced by placing cultures in SF medium containing either 10 μM or […] NMDA for 180 minutes. After this time, cultures were replated in SF-medium and maintained for 24 hours in the incubator. Either 300 μM L-ArgSp or vehicle (SF medium) was added to the culture medium pre-, during and post-NMDA exposure. Throughout the duration of the experiment, 5 μg/ml PI was included in the medium. After 24 hours, neuronal damage was determined by PI fluorescence imaging and quantified as described previously.

The test system of data set [2] is CA1 pyramidal cell layer of organotypic hippocampal slice cultures. The data set can be described thus: Hypoxic neuronal damage in organotypic hippocampal slice cultures (propidium iodide fluorescence). Type of data set: cell-based, Wistar rat. The following applies: 300 μM for 24 hours.

`N=C(N)NCCCC(N)C(=O)NCCCNCCCCN` [Compound A, N′-L-Arginylspermidine]: the “damage produced by NMDA (PI fluorescence, in words)” value in data set [1] (10 μM NMDA for 180 minutes) and in data set [1] (30 μM NMDA for 180 minutes) was “did not reduce the damage” each time. The “PI fluorescence above baseline after incubation without hypoxia” value in data set [2] is recorded as “no increase in PI fluorescence above baseline was observed”.
